In ChEMBL document CHEMBL3046044, “Evaluation of mefenamic acid mutual prodrugs” (Med Chem Res, 2013):

Key:
Rattus norvegicus [1] = assay: Inhibition of superoxide dismutase level in Rattus norvegicus (rat) stomach at 1260 mg/kg, po after 12 hr (reference value: 37.096 +/- 7.335%); assay type: functional
Rattus norvegicus [2] = assay: Effect on protein level in Rattus norvegicus (rat) stomach at 1260 mg/kg, po after 12 hr by Bradford method (reference value: 42.5 +/- 5.773 ug/ml); assay type: functional
Rattus norvegicus [3] = assay: Antioxidant activity in Rattus norvegicus (rat) stomach assessed as effect on catalase level measured per mg of protein at 1260 mg/kg, po after 12 hr by spectrophotometric analysis (reference value: 26.055 +/- 4.669 U); assay type: functional
Rattus norvegicus [4] = assay: Antioxidant activity in Rattus norvegicus (rat) stomach assessed as effect on GSH level measured per 100 g of protein at 1260 mg/kg, po after 12 hr by Ellman's method (reference value: 350.735 +/- 42.887 uM); assay type: functional
Rattus norvegicus [5] = assay: Antioxidant activity in Rattus norvegicus (rat) stomach assessed as reduction of lipid peroxidation measured MDA level per mg of protein at 800 mg/kg, po after 12 hr by TBARS assay (reference value: 4.388 +/- 0.404 nM); assay type: functional
Rattus norvegicus [6] = assay: Increase in hexosamine level in Rattus norvegicus (rat) stomach at 1260 mg/kg, po after 12 hr (reference value: 122.323 +/- 4.639 ug/ml); assay type: functional
Rattus norvegicus [7] = assay: Reduction of gastric wall mucus level in Rattus norvegicus (rat) stomach measured per mg of protein at 1260 mg/kg, po after 12 hr by alcian blue staining (reference value: 285.680 +/- 3.348 ug); assay type: functional
[8] = Half life in Homo sapiens (human) 80% plasma at 10 mg at pH 7.4; assay type: ADME, cell-free; conditions: 80% human plasma
[9] = Half life in isotonic phosphate buffer at 10 mg at pH 7.4; assay type: physicochemical
[10] = Half life in hydrochloric acid buffer at 10 mg at pH 1.2; assay type: physicochemical
[11] = Solubility of the compound in benzene at 10 mg; assay type: physicochemical
[12] = n-Octanol-phosphate buffer partition coefficient, log P of the compound at pH 7.4 by HPLC method; assay type: physicochemical
[13] = Solubility of the compound in dichloromethane at 10 mg; assay type: physicochemical
[14] = Solubility of the compound in ethanol at 10 mg; assay type: physicochemical
[15] = Solubility of the compound in chloroform at 10 mg; assay type: physicochemical
[16] = Solubility of the compound in methanol at 10 mg; assay type: physicochemical
[17] = Solubility of the compound in 0.1 N hydrochloric acid at 10 mg; assay type: physicochemical
[18] = Solubility of the compound in 0.1 N sodium hydroxide at 10 mg; assay type: physicochemical
Rattus norvegicus [19] = assay: Anti-inflammatory activity in Rattus norvegicus Wistar albino (rat) assessed as inhibition of carrageenan-induced paw edema at 126 mg/kg, po measured at 24 hr relative to control; assay type: functional
Rattus norvegicus [20] = assay: Anti-inflammatory activity in Rattus norvegicus Wistar albino (rat) assessed as inhibition of carrageenan-induced paw edema at 126 mg/kg, po measured at 6 hr relative to control; assay type: functional
Rattus norvegicus [21] = assay: Anti-inflammatory activity in Rattus norvegicus Wistar albino (rat) assessed as inhibition of carrageenan-induced paw edema at 126 mg/kg, po measured at 4 hr relative to control; assay type: functional
Rattus norvegicus [22] = assay: Anti-inflammatory activity in Rattus norvegicus Wistar albino (rat) assessed as inhibition of carrageenan-induced paw edema at 126 mg/kg, po measured at 3 hr relative to control; assay type: functional
Rattus norvegicus [23] = assay: Ulcerogenicity in Rattus norvegicus (rat) stomach assessed as ulcer index at 1260 mg/kg, po after 12 hr (reference value: 3.413 +/- 2.160 no unit); assay type: toxicity, organism-based; parameters: dose 1260 mg/kg, route oral; conditions: in vivo
Mus musculus = assay: Analgesic activity in po dosed Mus musculus Swiss albino (mouse) assessed as inhibition of acetic acid-induced writhing administered 1 hr prior to acetic acid challenge measured for 20 min relative to control; assay type: functional
Rattus norvegicus [24] = assay: Anti-inflammatory activity in Rattus norvegicus Wistar albino (rat) assessed as inhibition of carrageenan-induced paw edema at 80 mg/kg, po measured at 4 hr relative to control; assay type: functional
Rattus norvegicus [25] = assay: Anti-inflammatory activity in Rattus norvegicus Wistar albino (rat) assessed as inhibition of carrageenan-induced paw edema at 80 mg/kg, po measured at 3 hr relative to control; assay type: functional
Rattus norvegicus [26] = assay: Effect on protein level in Rattus norvegicus (rat) stomach at 800 mg/kg, po after 12 hr by Bradford method (reference value: 42.5 +/- 5.773 ug/ml); assay type: functional
Rattus norvegicus [27] = assay: Inhibition of superoxide dismutase level in Rattus norvegicus (rat) stomach at 800 mg/kg, po after 12 hr (reference value: 37.096 +/- 7.335%); assay type: functional
Rattus norvegicus [28] = assay: Antioxidant activity in Rattus norvegicus (rat) stomach assessed as effect on catalase level measured per mg of protein at 800 mg/kg, po after 12 hr by spectrophotometric analysis (reference value: 26.055 +/- 4.669 U); assay type: functional
Rattus norvegicus [29] = assay: Antioxidant activity in Rattus norvegicus (rat) stomach assessed as effect on GSH level measured per 100 g of protein at 800 mg/kg, po after 12 hr by Ellman's method (reference value: 350.735 +/- 42.887 uM); assay type: functional
Rattus norvegicus [30] = assay: Antioxidant activity in Rattus norvegicus (rat) stomach assessed as reduction of lipid peroxidation measured MDA level per mg of protein at 1240 mg/kg, po after 12 hr by TBARS assay (reference value: 4.388 +/- 0.404 nM); assay type: functional
Rattus norvegicus [31] = assay: Increase in hexosamine level in Rattus norvegicus (rat) stomach at 800 mg/kg, po after 12 hr (reference value: 122.323 +/- 4.639 ug/ml); assay type: functional
Rattus norvegicus [32] = assay: Reduction of gastric wall mucus level in Rattus norvegicus (rat) stomach measured per mg of protein at 800 mg/kg, po after 12 hr by alcian blue staining (reference value: 285.680 +/- 3.348 ug); assay type: functional
Rattus norvegicus [33] = assay: Ulcerogenicity in Rattus norvegicus (rat) stomach assessed as ulcer index at 800 mg/kg, po after 12 hr (reference value: 3.413 +/- 2.160 no unit); assay type: toxicity, organism-based; parameters: dose 800 mg/kg, route oral; conditions: in vivo
Rattus norvegicus [34] = assay: Anti-inflammatory activity in Rattus norvegicus Wistar albino (rat) assessed as inhibition of carrageenan-induced paw edema at 80 mg/kg, po measured at 24 hr relative to control; assay type: functional
Rattus norvegicus [35] = assay: Anti-inflammatory activity in Rattus norvegicus Wistar albino (rat) assessed as inhibition of carrageenan-induced paw edema at 80 mg/kg, po measured at 6 hr relative to control; assay type: functional
Rattus norvegicus [36] = assay: Inhibition of superoxide dismutase level in Rattus norvegicus (rat) stomach at 1240 mg/kg, po after 12 hr (reference value: 37.096 +/- 7.335%); assay type: functional
Rattus norvegicus [37] = assay: Effect on protein level in Rattus norvegicus (rat) stomach at 1240 mg/kg, po after 12 hr by Bradford method (reference value: 42.5 +/- 5.773 ug/ml); assay type: functional
Rattus norvegicus [38] = assay: Antioxidant activity in Rattus norvegicus (rat) stomach assessed as effect on catalase level measured per mg of protein at 1240 mg/kg, po after 12 hr by spectrophotometric analysis (reference value: 26.055 +/- 4.669 U); assay type: functional
Rattus norvegicus [39] = assay: Antioxidant activity in Rattus norvegicus (rat) stomach assessed as effect on GSH level measured per 100 g of protein at 1240 mg/kg, po after 12 hr by Ellman's method (reference value: 350.735 +/- 42.887 uM); assay type: functional
Rattus norvegicus [40] = assay: Antioxidant activity in Rattus norvegicus (rat) stomach assessed as reduction of lipid peroxidation measured MDA level per mg of protein at 1260 mg/kg, po after 12 hr by TBARS assay (reference value: 4.388 +/- 0.404 nM); assay type: functional
Rattus norvegicus [41] = assay: Increase in hexosamine level in Rattus norvegicus (rat) stomach at 1240 mg/kg, po after 12 hr (reference value: 122.323 +/- 4.639 ug/ml); assay type: functional
Rattus norvegicus [42] = assay: Reduction of gastric wall mucus level in Rattus norvegicus (rat) stomach measured per mg of protein at 1240 mg/kg, po after 12 hr by alcian blue staining (reference value: 285.680 +/- 3.348 ug); assay type: functional
Rattus norvegicus [43] = assay: Anti-inflammatory activity in Rattus norvegicus Wistar albino (rat) assessed as inhibition of carrageenan-induced paw edema at 124 mg/kg, po measured at 24 hr relative to control; assay type: functional
Rattus norvegicus [44] = assay: Anti-inflammatory activity in Rattus norvegicus Wistar albino (rat) assessed as inhibition of carrageenan-induced paw edema at 124 mg/kg, po measured at 6 hr relative to control; assay type: functional
Rattus norvegicus [45] = assay: Anti-inflammatory activity in Rattus norvegicus Wistar albino (rat) assessed as inhibition of carrageenan-induced paw edema at 124 mg/kg, po measured at 4 hr relative to control; assay type: functional
Rattus norvegicus [46] = assay: Anti-inflammatory activity in Rattus norvegicus Wistar albino (rat) assessed as inhibition of carrageenan-induced paw edema at 124 mg/kg, po measured at 3 hr relative to control; assay type: functional
Rattus norvegicus [47] = assay: Ulcerogenicity in Rattus norvegicus (rat) stomach assessed as ulcer index at 1240 mg/kg, po after 12 hr (reference value: 3.413 +/- 2.160 no unit); assay type: toxicity, organism-based; parameters: dose 1240 mg/kg, route oral; conditions: in vivo

SMILES: Cc1cccc(Nc2ccccc2C(=O)OC2CC(C)CCC2C(C)C)c1C (stereo not drawn) [Mefenamic acid-menthol]
- inhibition in vivo at 1260 mg/kg (Rattus norvegicus [1]): 29.2%
- Activity (Rattus norvegicus [2]): 32.083 µg/mL
- Activity (Rattus norvegicus [3]): 23.807 U
- Activity (Rattus norvegicus [4]): 261.03 µM
- Activity (Rattus norvegicus [5]): 16.056 nM
- Activity (Rattus norvegicus [6]): 144.445 µg/mL
- Activity (Rattus norvegicus [7]): 227.7692 µg
- half-life [8]: 1.43 h
- half-life [9]: 8.87 h
- half-life [10]: 20.8 h
- solubility [11]: soluble
- logD [12]: 4.98
- solubility [13]: soluble
- solubility [14]: soluble
- solubility [15]: soluble
- solubility [16]: soluble
- solubility [17]: Insoluble
- solubility [18]: soluble
- inhibition in vivo at 126 mg/kg (Rattus norvegicus [19]): 67.1%
- inhibition in vivo at 126 mg/kg (Rattus norvegicus [20]): 51.6%
- inhibition in vivo at 126 mg/kg (Rattus norvegicus [21]): 44.1%
- inhibition in vivo at 126 mg/kg (Rattus norvegicus [22]): 41.7%
- UI (Rattus norvegicus [23]): 5.117
- inhibition (INH) (Mus musculus): 55.184%

SMILES: Cc1cccc(Nc2ccccc2C(=O)O)c1C [MEFENAMIC ACID]
- inhibition in vivo at 80 mg/kg (Rattus norvegicus [24]): 50.6%
- inhibition in vivo at 80 mg/kg (Rattus norvegicus [25]): 48.8%
- Activity (Rattus norvegicus [26]): 12.083 µg/mL
- inhibition in vivo at 800 mg/kg (Rattus norvegicus [27]): 24.2%
- Activity (Rattus norvegicus [28]): 4.587 U
- Activity (Rattus norvegicus [29]): 413.603 µM
- Activity (Rattus norvegicus [30]): 26.25 nM
- Activity (Rattus norvegicus [31]): 139.224 µg/mL
- Activity (Rattus norvegicus [32]): 170.026 µg
- solubility [11]: soluble
- solubility [13]: soluble
- solubility [14]: soluble
- solubility [15]: soluble
- solubility [16]: soluble
- solubility [17]: Insoluble
- solubility [18]: soluble
- UI (Rattus norvegicus [33]): 10.867
- inhibition (INH) (Mus musculus): 63.321%
- inhibition in vivo at 80 mg/kg (Rattus norvegicus [34]): 69.1%
- inhibition in vivo at 80 mg/kg (Rattus norvegicus [35]): 64.1%

SMILES: Cc1ccc(C(C)C)c(OC(=O)c2ccccc2Nc2cccc(C)c2C)c1
- inhibition in vivo at 1240 mg/kg (Rattus norvegicus [36]): 33.3%
- Activity (Rattus norvegicus [37]): 42.917 µg/mL
- Activity (Rattus norvegicus [38]): 23.089 U
- Activity (Rattus norvegicus [39]): 286.765 µM
- Activity (Rattus norvegicus [40]): 13.972 nM
- Activity (Rattus norvegicus [41]): 151.249 µg/mL
- Activity (Rattus norvegicus [42]): 190.256 µg
- half-life [8]: 1.14 h
- half-life [9]: 7.11 h
- half-life [10]: 23.1 h
- solubility [11]: soluble
- logD [12]: 5.45
- solubility [13]: soluble
- solubility [14]: soluble
- solubility [15]: soluble
- solubility [16]: soluble
- solubility [17]: Insoluble
- solubility [18]: soluble
- inhibition in vivo at 124 mg/kg (Rattus norvegicus [43]): 62.4%
- inhibition in vivo at 124 mg/kg (Rattus norvegicus [44]): 51%
- inhibition in vivo at 124 mg/kg (Rattus norvegicus [45]): 41.7%
- inhibition in vivo at 124 mg/kg (Rattus norvegicus [46]): 37.8%
- UI (Rattus norvegicus [47]): 6.833
- inhibition (INH) (Mus musculus): 52.722%
